This is an account of results in US20250236616A1, “IMMUNOMODULATING AZALIDES” (Zoetis Services LLC, priority 2021, published 2025).

The subject of assay [1] is TNF-α. In words: Whole bovine blood assay, LPS-induced TNF-α. It is filed as cell-based. To be noted: fresh whole bovine blood, LPS stimulant. Summed up: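 Fresh heparinized bovine whole blood was preincubated with compound 4 h at 37 °C, then stimulated with LPS (final 1 μg/mL) for 18 h at 37 °C. Plasma TNF-α was quantified by MSD U-Plex chemiluminescent immunoassay, normalized to total protein (BCA), and IC50 taken for LPS-induced TNF-α inhibition.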

In assay [2] the test system is IL-1β. The assay can be described thus: Whole bovine blood assay, LPS-induced IL-1β (inhibition / overstimulation). It is filed as cell-based. The note with it: drug concentration giving overstimulation (OS) of LPS-induced IL-1β. How it is done:
Whole Blood Assay-Fresh whole bovine blood samples were collected into heparinized vacutainer tubes. Assay plates were prepared with 25 μL of drug diluted in PBS at varying concentration in 96 round bottom wells, then 225 μL of blood was added and plates incubated at 37° C. for 4 hours. Cells were stimulated with LPS (or PBS for controls) by adding 25 μL to the plates at a final concentration of 1 μg/mL and incubated at 37° C. for 18 hours. To collect plasma, plates were centrifuged at 2,000×g for 10 minutes and 100 μL of supernatant was transferred to a 96 well polypropylene plate that was sealed and stored at −80° C. Samples were assayed for cytokines using the Meso Scale Discovery (MSD) platform (described below). This same MSD platform was used to assess cytokines in the plasma collected directly from drug treated animals.
Cytokine Detection—An MSD U-Plex cytokine assay was developed following the MSD U-Plex protocol guide and included biotinylated capture antibodies against: bovine Interleukin (IL)-1β (Biorad), bovine IL-6 (R&D Systems) and bovine tumor necrosis factor (TNF)-α (R&D Systems). The anti-IL-1β antibody was biotinylated using EZ-Link Sulfo-NHS-Biotin (Thermo Scientific) at a challenge ratio of 1:20 according to manufacturer instructions. Assay calibrators (Kingfisher) were diluted to a concentration of […] in control lithium heparin plasma, followed by 4-fold serial dilutions into plasma. The detection antibodies were sulfo-tagged following the MSD quick guide conjugation protocol using a challenge ratio of 1:20. Antibodies were used at the following concentrations: anti-IL-1β at 1 μg/mL, anti-IL-6 at 1 μg/mL and anti-TNF-α at 0.5 μg/mL. Cytokines were quantified according to manufacturer's instructions using a chemiluminescent readout. In brief, 0.5 mL of all biotinylated antibodies were diluted to 10 μg/mL with Diluent 100 and paired to their respective linkers by adding 750 μL of supplied Linker solution and incubated for 30 minutes followed by addition of Stop solution for another 30 minutes. The linked antibodies were then diluted 10-fold into Stop solution. Plates were coated by adding 50 μL of antibody solutions per well and incubated covered and shaking for 1 hour at room temperature. Plates were washed three times with PBS/Tween20 prior to samples or standards being added at 30 μL per well and incubated as above. Plates were washed three times before detection antibodies were added along with 2% goat and rabbit serum to block and incubated same as above. Plates were washed a further three times before addition of 150 μL 2X Read buffer and read immediately on the SI6000 instrument (MSD). For soluble protein levels, a BCA protein kit (Thermofisher) was used. The cytokine concentrations (pg/mL) were normalized to the total protein levels for each sample. [Bassel et. al., BMC Veterinary Research (2020) 16:168]
Therefore, a fresh whole bovine blood assay was developed with LPS as a stimulant (TLR-4 agonist) and with IL-1β and TNF-α as the read-out. Compounds of the invention were evaluated against a positive control for their ability to inhibit LPS-induced IL-1β and TNF-α as an overall evaluation of relative potency and modulation of target pathways.
For M9, the top dose of 500 μM was not high enough to determine an overstimulation of IL-1 B which was recorded as not applicable (n/a). The enhanced response indicates increased concentration of IL-1β cytokine at the drug concentration indicated. This is generally observed when compounds are out of range (high concentration) and stimulate a cellular toxicity signal. Further data supporting this hypothesis includes murine studies using a P. multocida infection in mice.
TNFα is a cell signaling protein, cytokine, that plays a key role in both acute and chronic inflammation. […]

Molecules are shown by their SMILES.

The IC50 is the concentration that gives 50% inhibition. A higher IC50 goes with lower potency. The term minimal effective concentration denotes the lowest level tested that produced the effect sought. Low readings indicate greater potency, high ones weaker potency. The molecule `CC[C@H]1OC(=O)[C@H](C)[C@@H](O)[C@H](C)[C@@H](O[C@@H]2O[C@H](C)C[C@H](N(C)S(=O)(=O)c3ccccc3)[C@H]2Oc2ccc(OC)cc2)[C@](C)(O)C[C@@H](C)CN(C)[C@H](C)[C@@H](O)[C@]1(C)O` [Example A-1] had a half-inhibitory concentration (IC50) in assay [1] (top drug concentration 250 μM) of 22 µM. Moreover, the minimal effective concentration in assay [2] (top concentration 250 μM) is given as 16 µM. `CC[C@H]1OC(=O)[C@H](C)[C@@H](O)[C@H](C)[C@@H](O[C@@H]2O[C@H](C)C[C@H](N(C)S(=O)(=O)c3ccccc3)[C@H]2Oc2ccc(F)c(C(F)(F)F)c2)[C@](C)(O)C[C@@H](C)CN(C)[C@H](C)[C@@H](O)[C@]1(C)O` [Example A-2] had a half-maximal inhibitory concentration (IC50) in assay [1] (top drug concentration 250 μM) of 28 µM. The minimal effective concentration in assay [2] (top concentration 250 μM) is 40 µM. In the same order, the values of `CC[C@H]1OC(=O)[C@H](C)[C@@H](O)[C@H](C)[C@@H](O[C@H]2O[C@@H](C)C[C@@H](N(C)S(=O)(=O)Nc3ccccc3)[C@@H]2Oc2ccccc2)[C@](C)(O)C[C@@H](C)CN[C@H](C)[C@@H](O)[C@]1(C)O` [Example A-4] are 10 µM and 4 µM.

`CC[C@H]1OC(=O)[C@H](C)[C@@H](O)[C@H](C)[C@@H](O[C@@H]2O[C@H](C)C[C@H](N(C)S(=O)(=O)Nc3ccccc3)[C@H]2Oc2ccc(OC)cc2)[C@](C)(O)C[C@@H](C)CN[C@H](C)[C@@H](O)[C@]1(C)O` [Example A-36]: in assay [1] (top drug concentration 250 μM), the 50% inhibitory concentration (IC50) amounted to 10 µM. In addition, the minimal effective concentration in assay [2] (top concentration 250 μM) was found to be 4 µM.

Turning to `CCCNC[C@]1(O)[C@H](C)O[C@@H](O[C@H]2[C@H](C)[C@@H](O[C@@H]3O[C@H](C)C[C@H](N(C)S(=O)(=O)c4cn(C)c(C)n4)[C@H]3O)[C@](C)(O)C[C@@H](C)CN[C@H](C)[C@@H](O)[C@](C)(O)[C@@H](CC)OC(=O)[C@@H]2C)C[C@@]1(C)OC` [Example B-5], the IC50 in assay [1] (top drug concentration 250 μM) was more than 250 µM. This molecule also returned a minimal effective concentration in assay [2] (top concentration 250 μM) of more than 250 µM. The matching figures for `CCCNC[C@]1(O)[C@H](C)O[C@@H](O[C@H]2[C@H](C)[C@@H](O[C@@H]3O[C@H](C)C[C@H](N(C)S(=O)(=O)c4ccc(F)nc4)[C@H]3O)[C@](C)(O)C[C@@H](C)CN[C@H](C)[C@@H](O)[C@](C)(O)[C@@H](CC)OC(=O)[C@@H]2C)C[C@@]1(C)OC` [Example B-6]: 24 µM and 16 µM. In the same order, the values of `CCCNC[C@]1(O)[C@H](C)O[C@@H](O[C@H]2[C@H](C)[C@@H](O[C@@H]3O[C@H](C)C[C@H](N(C)S(=O)(=O)c4ccccc4)[C@H]3O)[C@](C)(O)C[C@@H](C)CN[C@H](C)[C@@H](O)[C@](C)(O)[C@@H](CC)OC(=O)[C@@H]2C)C[C@@]1(C)OC` [Example B-7] are 25 µM and 40 µM. For the molecule `CCCNC[C@]1(O)[C@H](C)O[C@@H](O[C@H]2[C@H](C)[C@@H](O[C@@H]3O[C@H](C)C[C@H](N(C)S(=O)(=O)c4cnc5ccsc5c4)[C@H]3O)[C@](C)(O)C[C@@H](C)CN[C@H](C)[C@@H](O)[C@](C)(O)[C@@H](CC)OC(=O)[C@@H]2C)C[C@@]1(C)OC` [Example B-9], inhibition in assay [1] (top drug concentration 250 μM) was half-maximal at 55 µM (IC50). Besides, in assay [2] (top concentration 250 μM), the minimal effective concentration is 40 µM. In assay [1] (top drug concentration 250 μM), `CCCNC[C@]1(O)[C@H](C)O[C@@H](O[C@H]2[C@H](C)[C@@H](O[C@@H]3O[C@H](C)C[C@H](N(C)S(=O)(=O)CC4CC4)[C@H]3O)[C@](C)(O)C[C@@H](C)CN[C@H](C)[C@@H](O)[C@](C)(O)[C@@H](CC)OC(=O)[C@@H]2C)C[C@@]1(C)OC` [Example B-10] came in with an IC50 of 33 µM. Further, the minimal effective concentration in assay [2] (top concentration 250 μM) is reported as 15 µM. Molecule `CCCNC[C@]1(O)[C@H](C)O[C@@H](O[C@H]2[C@H](C)[C@@H](O[C@@H]3O[C@H](C)C[C@H](N(C)S(=O)(=O)c4ccc(C#N)cc4)[C@H]3O)[C@](C)(O)C[C@@H](C)CN[C@H](C)[C@@H](O)[C@](C)(O)[C@@H](CC)OC(=O)[C@@H]2C)C[C@@]1(C)OC` [Example B-13] yielded an IC50 in assay [1] (top drug concentration 250 μM) of more than 250 µM. The molecule further came in with a minimal effective concentration in assay [2] (top concentration 250 μM) of 100 µM. The matching figures for `CCCNC[C@]1(O)[C@H](C)O[C@@H](O[C@H]2[C@H](C)[C@@H](O[C@@H]3O[C@H](C)C[C@H](N(C)S(=O)(=O)c4cn(C)cn4)[C@H]3O)[C@](C)(O)C[C@@H](C)CN[C@H](C)[C@@H](O)[C@](C)(O)[C@@H](CC)OC(=O)[C@@H]2C)C[C@@]1(C)OC` [Example B-16]: more than 250 µM and more than 250 µM. In the case of `CCCNC[C@]1(O)[C@H](C)O[C@@H](O[C@H]2[C@H](C)[C@@H](O[C@@H]3O[C@H](C)C[C@H](N(C)S(=O)(=O)c4ccc(OC)cc4)[C@H]3O)[C@](C)(O)C[C@@H](C)CN[C@H](C)[C@@H](O)[C@](C)(O)[C@@H](CC)OC(=O)[C@@H]2C)C[C@@]1(C)OC` [Example B-18], 15 µM corresponded to half-maximal inhibition in assay [1] (dose of 500 μM (footnote ^)) (IC50). The molecule further yielded a minimal effective concentration in assay [2] (dose of 500 μM (footnote ^)) of 32 µM.

The molecule `CCCNC[C@]1(O)[C@H](C)O[C@@H](O[C@H]2[C@H](C)[C@@H](O[C@@H]3O[C@H](C)C[C@H](N(C)S(=O)(=O)c4ccc(-n5cccn5)cc4)[C@H]3O)[C@](C)(O)C[C@@H](C)CN[C@H](C)[C@@H](O)[C@](C)(O)[C@@H](CC)OC(=O)[C@@H]2C)C[C@@]1(C)OC` [Example B-19] had an IC50 in assay [1] (top drug concentration 250 μM) of 30 µM. For the same molecule, the minimal effective concentration in assay [2] (top concentration 250 μM) is given as 16 µM. In assay [1] (top drug concentration 250 μM), `CC[C@H]1OC(=O)[C@H](C)[C@@H](O[C@H]2C[C@@](C)(OC)[C@](O)(CNCCOC)[C@H](C)O2)[C@H](C)[C@@H](O[C@@H]2O[C@H](C)C[C@H](N(C)S(=O)(=O)c3ccc(Cl)cc3)[C@H]2O)[C@](C)(O)C[C@@H](C)CN[C@H](C)[C@@H](O)[C@]1(C)O` [Example B-36] showed an IC50 of 29 µM. For the same molecule, the minimal effective concentration in assay [2] (top concentration 250 μM) is on record as 16 µM. Turning to `CCCNC[C@]1(O)[C@H](C)O[C@@H](O[C@H]2[C@H](C)[C@@H](O[C@@H]3O[C@H](C)C[C@H](N(C)S(C)(=O)=O)[C@H]3O)[C@](C)(O)C[C@@H](C)CN[C@H](C)[C@@H](O)[C@](C)(O)[C@@H](CC)OC(=O)[C@@H]2C)C[C@@]1(C)OC` [Example B-59], the IC50 in assay [1] (top drug concentration 250 μM) turned out to be 150 µM. Also, the minimal effective concentration in assay [2] (top concentration 250 μM) is given as 57 µM. Turning to `CCCNC[C@]1(O)[C@H](C)O[C@@H](O[C@H]2[C@H](C)[C@@H](O[C@@H]3O[C@H](C)C[C@H](N(C)S(=O)(=O)N(C)c4ccc(C#N)cc4)[C@H]3O)[C@](C)(O)C[C@@H](C)CN[C@H](C)[C@@H](O)[C@](C)(O)[C@@H](CC)OC(=O)[C@@H]2C)C[C@@]1(C)OC` [Example B-62], in assay [2] (top concentration 250 μM), the minimal effective concentration was determined as 3 µM.

Consider `CCCNC[C@]1(O)[C@H](C)O[C@@H](O[C@H]2[C@H](C)[C@@H](O[C@@H]3O[C@H](C)C[C@H](N(C)S(=O)(=O)c4nccn4C)[C@H]3Oc3ccc(OC)cc3)[C@](C)(O)C[C@@H](C)CN[C@H](C)[C@@H](O)[C@](C)(O)[C@@H](CC)OC(=O)[C@@H]2C)C[C@@]1(C)OC` [Example B-119], for which the minimal effective concentration in assay [2] (top concentration 250 μM) was determined as 6 µM. The same measure, in the same setting: the figure for `CCCNC[C@]1(O)[C@H](C)O[C@@H](O[C@H]2[C@H](C)[C@@H](O[C@@H]3O[C@H](C)C[C@H](N(C)S(=O)(=O)c4ccccc4)[C@H]3Oc3ccc(Cl)cn3)[C@](C)(O)C[C@@H](C)CN[C@H](C)[C@@H](O)[C@](C)(O)[C@@H](CC)OC(=O)[C@@H]2C)C[C@@]1(C)OC` [Example B-135] is 6 µM; for `CCCNC[C@]1(O)[C@H](C)O[C@@H](O[C@H]2[C@H](C)[C@@H](O[C@@H]3O[C@H](C)C[C@H](N(C)S(N)(=O)=O)[C@H]3O)[C@](C)(O)C[C@@H](C)CN[C@H](C)[C@@H](O)[C@](C)(O)[C@@H](CC)OC(=O)[C@@H]2C)C[C@@]1(C)OC` [Example B-140] it is more than 250 µM.
